{"source": "patent US20160303068A1", "about": "“Compositions and Methods For Treating Brain Injury and Brain Diseases” (University of Washington through its Center for …, priority 2013, published 2016)", "key": {"[1]": {"test_system": "AD transgenic mouse models", "conditions": "in vivo; cited from earlier work"}, "3×Tg-AD mice": {"test_system": "3×Tg-AD mice", "experiment": "Manganese-enhanced MRI (MEMRI) of axonal transport rates in the olfactory tract, 3×Tg-AD mice", "format": "in vivo", "conditions": "intranasal 0.6 mg/kg, vs saline or young wild-type controls", "source_text": "MRI: Mice are anesthetized with isoflurane and scanned on an ultra-high resolution 14T MRI (Avance III, Bruker BioSpin Corp, Billerica, Mass.). Dynamic manganese enhanced magnetic resonance imaging (dyMEMRI): Mice are anesthetized with isoflurane and administered a unilateral injection of Sul of 1 M MnCl2 intranasally (with occlusion to block septal window). Parameters for magnetization prepared rapid gradient echo (MPRAGE) (TR/TE=11/5.3 ms; Ti=1000 ms; FA=9 deg acquired matrix 108×108 mm over 55 slices, voxel 0.2×0.2×0.4 mm3 interpolated to 0.1×0.1×0.2 mm3). […] MicroPET: Metabolic brain activity is assessed using FDG-PET performed under isoflurane anesthesia with 30 min uptake after 250 μCi intraperitoneal injection of FDG. […]\nThe effect of intra-nasal treatment of taxanes on the development of neurodegenerative pathology in a model of Alzheimer's disease was also studied. […] Treatment effectiveness was assessed with the same outcome measures as described in Example 1.\n(§1) Intranasal paclitaxel (Hospira, Inc., Lake Forest, Ill.) was administered to 3×Tg-AD mice (0.6 mg/kg in 0.9 percent saline, […] per nostril). […] Dynamic T1-weighted MR imaging detected signal enhancement and post-processing algorithms calculate a relative rate of transport. […]"}, "[2]": {"experiment": "[3H] paclitaxel distribution in brain via intranasal administration", "format": "in vivo, male CD-1 mice", "conditions": "1 μCi [3H] paclitaxel in 1 μl PBS to the right nares", "protocol": "FIGS. 4 A and 4B are graphs showing [^3H] paclitaxel distribution via intranasal administration in male CD-1 mice, 8 weeks, after administration of 1 μCi of [^3H] paclitaxel in 1 μl PBS to the right nares;\nFIGS. 4A and 4B show distribution of a taxane (paclitaxel) in the brain, when the taxane is administered intranasally. […] Thus, the intranasally administered taxane can bypass the blood-brain barrier (BBB) via the olfactory epithelium, and thereby provide therapeutic effect to a subject. The treatment methods can advantageously administer drug to the brain (e.g., an injured area of the brain) while minimizing side effects in non-target organs. The methods can have widespread applications. For example, intranasal administration of taxanes can result in decreased neuroinflammation, and can therefore be used in treatment of neuroinflammatory conditions, such as neurodegenerative diseases including Alzheimer's disease and related tauopathies, multiple sclerosis, viral infections, Parkinson's disease, as well as head trauma and mild concussions."}, "[3]": {"test_system": "rodent model of traumatic brain injury", "experiment": "MRI (T1-weighted, quantitative T2 maps) of injury volume and edema after controlled cortical impact", "format": "in vivo, C57BL6 mice", "protocol": "(§2) Rodent subjects (C57BL6 mice, 10 wks, male, n=12) had craniotomy over the right frontoparietal cortex of 5 mm, plus mild controlled cortical impact (CCI) surgery using a pneumatic impactor (AmScien Instruments, Richmond, Va.) at 6 m/s strike velocity, 1 mm depth of penetration, and 150 ms contact time, under isoflurane anesthesia. Immediately following CCI, 200 ug/kg paclitaxel (n=6) or vehicle (n=6) was applied to the brain injury site. Sham surgery (craniotomy, but no CCI) was performed on controls (n=3).\n(§3) At 2 days post-surgery, gait assessment of the subjects was conducted using CatWalk automated gait analysis (Noldus Information Tech, The Netherlands) followed by high-tesla magnetic resonance imaging (14T MR Avance III Ultrashield, Bruker BioSpin, Billerica, Mass.). T1-weighted and quantitative T2 maps were obtained: MDEFT (3D modified driven equilibrium Fourier transform), […]: 12°, TR (repetition time): 5000 ms, TE (echo time): 1.9ms, resolution 0.140×0.140×0.25 mm^3, 64 slices; T2 map: TR=2000 ms, 16 echoes, spacing:6.7 ms, TE1: 6.7 ms, TE 2:13.4 ms, resolution 0.12×0.12×1.0 mm^3, 15 slices. Manual volume of interest (VOI) analysis of injury volume and volume of edema related to injury was performed."}, "wild-type mice": {"test_system": "wild-type mice", "experiment": "Manganese-enhanced MRI (MEMRI) of axonal transport rates, wild-type mice", "format": "in vivo", "conditions": "wild-type mice treated with paclitaxel vs young wild-type controls, p≦0.01", "source_text": "MRI: Mice are anesthetized with isoflurane and scanned on an ultra-high resolution 14T MRI (Avance III, Bruker BioSpin Corp, Billerica, Mass.). Dynamic manganese enhanced magnetic resonance imaging (dyMEMRI): Mice are anesthetized with isoflurane and administered a unilateral injection of Sul of 1 M MnCl2 intranasally (with occlusion to block septal window). Parameters for magnetization prepared rapid gradient echo (MPRAGE) (TR/TE=11/5.3 ms; Ti=1000 ms; FA=9 deg acquired matrix 108×108 mm over 55 slices, voxel 0.2×0.2×0.4 mm3 interpolated to 0.1×0.1×0.2 mm3). Mice are scanned dynamically for 45 min (early uptake) at 1 hour post administration, allowed to recover and scanned again at 4-6 hours post (late transport) for 60 min. DTI acquired as 4 shot echo planar image (EPI); TR/TE=4000/18 ms, 30 diffusion directions, multislice 2D, b=1000 s/mm2, FOV 19×19 mm, matrix size=128×128 with slice thickness=0.5 mm over 9 min. MicroPET: Metabolic brain activity is assessed using FDG-PET performed under isoflurane anesthesia with 30 min uptake after 250 μCi intraperitoneal injection of FDG. […]\nas §1"}, "[4]": {"test_system": "rodent model of traumatic brain injury", "experiment": "Fractional anisotropy imaging of external capsule integrity after CCI", "format": "in vivo, C57BL6 mice", "conditions": "following CCI; paclitaxel not intranasally administered", "protocol": "as §2\nThe MPF results were corroborated using cross-relaxation imaging. Cross-relaxation imaging (CRI) is a quantitative magnetic resonance technique that measures the kinetic parameters of magnetization transfer between protons bound to water and protons bound to macromolecules. Here, in vivo, four-parameter CRI of normal rat brains (n=5) at 3.0 T was first directly compared to histology. The bound pool fraction, f, was strongly associated with myelin density (Pearson's r=0.99, p<0.001). The correlation persisted in separate analyses of gray matter (GM; r=0.89, p=0.046) and white matter (WM; r=0.97, p=0.029). The CRI results validated the MPF results, in that the taxane helped to preserve myelin density around the injury. Fractional anisotropy imaging was carried out to evaluate the integrity of underlying external capsule. […]"}, "[5]": {"test_system": "rodent model of traumatic brain injury", "experiment": "Macromolecular proton fraction (MPF) imaging of myelin density adjacent to injury after CCI", "format": "in vivo, C57BL6 mice", "protocol": "as §2\nMacromolecular proton fraction (MPF) imaging is a quantitative magnetic resonance technique that measures the magnetization transfer between protons bound to water and protons bound to macromolecules. MPF imaging was performed to evaluate myelin degradation adjacent to injury. […] Mean myelin density was calculated for a region of interest (circular region having a diameter of […]) that was larger than the actual injury (1.5 mm)."}, "spinal cord injury": {"test_system": "spinal cord injury", "conditions": "after spinal cord injury; cited from earlier work"}, "[6]": {"test_system": "rodent model of traumatic brain injury", "experiment": "CatWalk automated gait analysis after CCI", "format": "in vivo, C57BL6 mice", "protocol": "as §2, §3"}, "[7]": {"test_system": "glia fibrillary acidic protein (GFAP) expression", "experiment": "GFAP immunostain of CA1 region of hippocampus (reactive astrocytes)", "format": "in vivo, 3×Tg-AD mice", "conditions": "intranasal 0.6 mg/kg at 2 week intervals for 3 months; vs saline", "protocol": "Histology and Westerns. All confocal microscopy and immunohistochemistry are performed on perfusion fixed tissue prepared from animals that, immediately after euthanasia with pentobaritol (100 mg/kg), are perfused with saline followed by 4 percent paraformaldehyde/saline. For biochemical experiments (Western blots, etc.) other animals are perfused after death with saline and then the brains are rapidly dissected and flash frozen in liquid N2. Brain sections corresponding to the olfactory bulb are stained for Fluoro-Jade (1:1000, Histo-Chem Inc., AR, USA) as a marker of degenerating neurons and can be used to assess if 9 months of paclitaxel intranasal treatment may be neurotoxic. Glial fibrillary acidic protein (GFAP, 1:1500, Dako, Carpinteria, Calif.), an astroglial marker, and ionized calcium-binding adapter molecule 1 (Iba-1) (1:1000 Dako, Carpinteria, Calif.), a marker of microglial activation are processed using Avidin-Biotin procedure, which uses biotinylated secondary antibodies, avidin coupled to horse radish peroxidase (HRP) and reacted with 3,3′diaminobenzidine.\nThe application of paclitaxel to 3×Tg-AD mice (0.6 mg/kg at 2 week intervals for 3 months, intranasal administration) was investigated. It has been shown that microglia and astrocytes respond acutely to brain injury. […]"}}, "note": "Entries after “also recorded” stand apart in the source; their conditions may differ.", "data": [{"smiles": "C/C1=C/C[C@@H](/C(C)=C/c2csc(C)n2)OC(=O)C[C@H](O)C(C)(C)C(=O)[C@H](C)[C@@H](O)[C@@H](C)CCC1", "note": "[epothilone D]", "values": [{"measurement": "cognitive performance", "setting": "[1]", "value": "improve cognitive performance"}, {"measurement": "tau pathology", "setting": "[1]", "value": "reduce associated tau pathology"}]}, {"smiles": "CC(=O)O[C@H]1C(=O)[C@@]2(C)[C@H]([C@H](OC(=O)c3ccccc3)[C@]3(O)C[C@H](OC(=O)[C@H](O)[C@@H](NC(=O)c4ccccc4)c4ccccc4)C(C)=C1C3(C)C)[C@]1(OC(C)=O)CO[C@@H]1C[C@@H]2O", "note": "[paclitaxel]", "values": [{"measurement": "axonal transport rates", "setting": "3×Tg-AD mice", "value": "increased transport significantly; also recorded: Improved axonal transport rates; also recorded: relatively increased"}, {"measurement": "brain regions taking up taxane (FIG. 4A)", "setting": "[2]", "value": "taken up by the olfactory bulbs, the striatum, the hippocampus, the frontal cortex, the hypothalamus, and the cerebellum"}, {"measurement": "regional brain uptake level (second distribution graph)", "setting": "[2]", "value": "high striatum and hypothalamus uptake"}, {"measurement": "injury volume", "setting": "[3]; 200 ug/kg applied to brain injury site immediately after CCI, MRI 2 days post-surgery, vs vehicle 9.96±2.3, p≦0.05", "value": "7.94±1.5", "unit": "mm^3"}, {"measurement": "hyperintense voxels (edema) on quantitative T2 maps", "setting": "[3]; 200 ug/kg applied to brain injury site, 2 days post-surgery, vs vehicle 11.92±3.0, p≦0.05", "value": "8.86±2.2", "unit": "mm^3"}, {"measurement": "reduction of hyperintense voxels (edema)", "setting": "[3]; 200 ug/kg applied to brain injury site, vs vehicle", "value": 26, "unit": "%"}, {"measurement": "reduction in injury volume", "setting": "[3]; 200 ug/kg applied to brain injury site, vs vehicle, T2 and T1 images", "value": 20, "unit": "%"}, {"measurement": "injury volume on T1-weighted MRI (in words)", "setting": "[3]; paclitaxel versus saline treatment", "value": "indicating reduced injury"}, {"measurement": "axonal transport rates", "setting": "wild-type mice", "value": "relatively increased"}, {"measurement": "underlying white matter integrity (FA values in external capsule)", "setting": "[4]", "value": "No significant improvement"}, {"measurement": "MPF bound percent, injury side", "setting": "[5]; mn±sd, vs vehicle 8.95±0.3, p≦0.05", "value": "9.45±0.4"}, {"measurement": "MPF bound percent, contralateral cortical area", "setting": "[5]; vs vehicle", "value": "No difference"}, {"measurement": "increase of MPF bound percent on the injury side", "setting": "[5]; vs vehicle", "value": 6.6, "unit": "%"}, {"measurement": "axon regeneration", "setting": "spinal cord injury", "value": "facilitate axon regeneration"}, {"measurement": "maximum print area", "setting": "[6]; 2 days post-surgery, vs vehicle 0.29±0.08, p≦0.05", "value": "0.38±0.09", "unit": "cm^2"}, {"measurement": "mean intensity", "setting": "[6]; 2 days post-surgery, vs vehicle 66.38±5.52, p≦0.05", "value": "79.45±14.26"}, {"measurement": "swing, decreased", "setting": "[6]; right front (RF) and left hind (LF) only, vs vehicle", "value": 12, "unit": "%"}, {"measurement": "print length, increase", "setting": "[6]; right hind (RH) only, vs vehicle", "value": 12, "unit": "%"}, {"measurement": "gait parameters (in words)", "setting": "[6]; short term, 8 days, paclitaxel over saline treated subjects", "value": "Improved gait parameters"}, {"measurement": "maximum print area, increased", "setting": "[6]; vs vehicle", "value": "22-52%"}, {"measurement": "mean intensity, increased", "setting": "[6]; vs vehicle", "value": "19-22%"}, {"measurement": "print area, increased", "setting": "[6]; vs vehicle", "value": "20-45%"}, {"measurement": "print width, increased", "setting": "[6]; vs vehicle", "value": "5-17%"}, {"measurement": "GFAP expression / reactive astrocytes in CA1 region of hippocampus", "setting": "[7]", "value": "decreased evidence of activated astrocytes; also recorded: markedly reduced reactive astrocytes; also recorded: reduced GFAP expression levels; also recorded: showing reduced"}]}]}
